What was measured:
[1] = for mass density: 101.33 kPa, Liquid, Vibrating tube method; for Normal melting temperature: Crystal, Phase equilibration
[2] = refractive index (Na D-line) (dimensionless); conditions: 101.33 kPa, Liquid, Standard Abbe refractometry
[3] = xn = mol fraction of the nth substance listed; conditions: 101.3 kPa, Liquid, Vibrating tube method
[4] = refractive index (Na D-line) (dimensionless); xn = mol fraction of the nth substance listed; conditions: 101.3 kPa, Liquid, Standard Abbe refractometry

O=S1OCCO1 [1,3,2-dioxathiolane, 2-oxide]
298.15 K
Conditions | mass density [kg/m3] | refractive index
[1] | 1432.17 | –
[2] | – | 1.4449

Conditions | Normal melting temperature [°C]
[1] | -17.01

O=S1OCCO1 [1,3,2-dioxathiolane, 2-oxide] + CCOC(=O)OC
298.15 K
Conditions | mass density, [3] [kg/m3] | refractive index, [4]
x2 = 0.0498 | 1404.65 | 1.4405
x2 = 0.0994 | 1378 | 1.4361
x2 = 0.1993 | 1326.76 | 1.4279
x2 = 0.2998 | 1278.43 | 1.42
x2 = 0.3996 | 1233.17 | 1.4127
x2 = 0.5008 | 1189.88 | 1.4056
x2 = 0.5995 | 1149.94 | 1.3991
x2 = 0.7001 | 1111.21 | 1.3927
x2 = 0.8002 | 1074.73 | 1.3867
x2 = 0.8995 | 1040.17 | 1.381
x2 = 0.9501 | 1023.08 | 1.3782

O=S1OCCO1 [1,3,2-dioxathiolane, 2-oxide] + COC(=O)OC
298.15 K
Conditions | mass density, [3] [kg/m3] | refractive index, [4]
x2 = 0.0499 | 1412.39 | 1.4407
x2 = 0.0997 | 1392.6 | 1.4365
x2 = 0.2002 | 1353.25 | 1.4283
x2 = 0.2999 | 1314.96 | 1.4202
x2 = 0.4 | 1277.01 | 1.4123
x2 = 0.4997 | 1239.88 | 1.4044
x2 = 0.6004 | 1202.89 | 1.3965
x2 = 0.6998 | 1166.91 | 1.3889
x2 = 0.8009 | 1130.5 | 1.3811
x2 = 0.9002 | 1095.66 | 1.3737
x2 = 0.9505 | 1078.06 | 1.37

O=S1OCCO1 [1,3,2-dioxathiolane, 2-oxide] + O=C1CCCO1
298.15 K
Conditions | mass density, [3] [kg/m3] | refractive index, [4]
x2 = 0.0501 | 1417.36 | 1.4443
x2 = 0.1008 | 1401.19 | 1.4437
x2 = 0.2006 | 1369.54 | 1.4425
x2 = 0.2991 | 1338.59 | 1.4414
x2 = 0.4102 | 1303.97 | 1.4402
x2 = 0.4994 | 1276.38 | 1.4392
x2 = 0.5998 | 1245.54 | 1.4382
x2 = 0.701 | 1214.73 | 1.4373
x2 = 0.7995 | 1184.91 | 1.4365
x2 = 0.9002 | 1154.7 | 1.4356
x2 = 0.9495 | 1139.97 | 1.4353

O=S1OCCO1 [1,3,2-dioxathiolane, 2-oxide] + O=C1OCCO1
318.15 K
Conditions | mass density, [3] [kg/m3] | refractive index, [4]
x2 = 0.0492 | 1403.48 | 1.4358
x2 = 0.0998 | 1399.66 | 1.435
x2 = 0.2011 | 1391.76 | 1.4333
x2 = 0.3 | 1383.61 | 1.4315
x2 = 0.4024 | 1374.81 | 1.4297
x2 = 0.5005 | 1366.04 | 1.4278
x2 = 0.5994 | 1356.86 | 1.4259
x2 = 0.6997 | 1347.14 | 1.4238
x2 = 0.8005 | 1337 | 1.4217
x2 = 0.8996 | 1326.62 | 1.4196
x2 = 0.9494 | 1321.21 | 1.4185

COC(=O)OC [dimethyl carbonate]
298.15 K
Conditions | mass density [kg/m3] | refractive index
[1] | 1060.87 | –
[2] | – | 1.3662

Conditions | Normal melting temperature [°C]
[1] | 4.37

CCOC(=O)OC [ethyl methyl carbonate]
298.15 K
Conditions | mass density [kg/m3] | refractive index
[1] | 1006.88 | –
[2] | – | 1.3754

Conditions | Normal melting temperature [°C]
[1] | -51.47

O=C1OCCO1 [ethylene carbonate]
318.15 K
Conditions | mass density [kg/m3] | refractive index
[1] | 1315.7 | –
[2] | – | 1.4172

Conditions | Normal melting temperature [°C]
[1] | 37.41

O=C1CCCO1 [γ-butyrolactone]
298.15 K
Conditions | mass density [kg/m3] | refractive index
[1] | 1124.97 | –
[2] | – | 1.4349

Conditions | Normal melting temperature [°C]
[1] | -41.87
